According to ChEMBL document CHEMBL1139232, “Isothiazoloquinolones with enhanced antistaphylococcal activities against multidrug-resistant strains: effects of structural modifications at the 6-, 7-, and 8-positions” (J Med Chem, 2007):
Converted amounts (≈) assume the structure as drawn.

Columns and labels:
Staphylococcus aureus [1] = assay: Antibacterial activity against methicillin-resistant Staphylococcus aureus; format: functional
[2] = Cytotoxicity against human Hep2 cell line after 72 hrs; format: cell-based, HEp-2; conditions: Hep2 cells
Staphylococcus aureus [3] = assay: Antibacterial activity against Staphylococcus aureus; format: functional
[4] = Inhibition of Staphylococcus aureus topoisomerase 4 by decatenation assay
DNA gyrase = DNA gyrase (Staphylococcus aureus, UniProt P0A0K8+P20831); assay: Inhibition of Staphylococcus aureus DNA gyrase by supercoiling assay; format: protein-complex assay
Sequence of DNA gyrase (P0A0K8 whole entry): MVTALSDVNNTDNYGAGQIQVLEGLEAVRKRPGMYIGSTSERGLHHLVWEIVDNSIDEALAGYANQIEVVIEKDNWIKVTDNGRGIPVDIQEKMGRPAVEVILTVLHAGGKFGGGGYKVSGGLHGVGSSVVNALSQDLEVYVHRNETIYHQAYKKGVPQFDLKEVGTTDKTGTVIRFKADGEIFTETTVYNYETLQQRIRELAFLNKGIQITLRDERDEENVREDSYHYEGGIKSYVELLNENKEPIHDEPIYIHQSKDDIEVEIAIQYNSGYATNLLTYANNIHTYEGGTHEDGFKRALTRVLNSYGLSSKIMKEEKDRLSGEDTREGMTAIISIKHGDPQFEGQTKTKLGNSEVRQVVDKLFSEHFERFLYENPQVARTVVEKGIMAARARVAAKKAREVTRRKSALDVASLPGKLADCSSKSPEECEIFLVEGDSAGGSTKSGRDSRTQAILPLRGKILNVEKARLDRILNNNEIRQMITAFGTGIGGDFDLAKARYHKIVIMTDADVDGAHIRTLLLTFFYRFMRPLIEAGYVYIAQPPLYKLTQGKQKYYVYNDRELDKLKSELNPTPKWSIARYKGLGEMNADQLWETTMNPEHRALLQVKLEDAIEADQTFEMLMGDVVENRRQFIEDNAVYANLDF
Sequence of DNA gyrase (P20831 whole entry): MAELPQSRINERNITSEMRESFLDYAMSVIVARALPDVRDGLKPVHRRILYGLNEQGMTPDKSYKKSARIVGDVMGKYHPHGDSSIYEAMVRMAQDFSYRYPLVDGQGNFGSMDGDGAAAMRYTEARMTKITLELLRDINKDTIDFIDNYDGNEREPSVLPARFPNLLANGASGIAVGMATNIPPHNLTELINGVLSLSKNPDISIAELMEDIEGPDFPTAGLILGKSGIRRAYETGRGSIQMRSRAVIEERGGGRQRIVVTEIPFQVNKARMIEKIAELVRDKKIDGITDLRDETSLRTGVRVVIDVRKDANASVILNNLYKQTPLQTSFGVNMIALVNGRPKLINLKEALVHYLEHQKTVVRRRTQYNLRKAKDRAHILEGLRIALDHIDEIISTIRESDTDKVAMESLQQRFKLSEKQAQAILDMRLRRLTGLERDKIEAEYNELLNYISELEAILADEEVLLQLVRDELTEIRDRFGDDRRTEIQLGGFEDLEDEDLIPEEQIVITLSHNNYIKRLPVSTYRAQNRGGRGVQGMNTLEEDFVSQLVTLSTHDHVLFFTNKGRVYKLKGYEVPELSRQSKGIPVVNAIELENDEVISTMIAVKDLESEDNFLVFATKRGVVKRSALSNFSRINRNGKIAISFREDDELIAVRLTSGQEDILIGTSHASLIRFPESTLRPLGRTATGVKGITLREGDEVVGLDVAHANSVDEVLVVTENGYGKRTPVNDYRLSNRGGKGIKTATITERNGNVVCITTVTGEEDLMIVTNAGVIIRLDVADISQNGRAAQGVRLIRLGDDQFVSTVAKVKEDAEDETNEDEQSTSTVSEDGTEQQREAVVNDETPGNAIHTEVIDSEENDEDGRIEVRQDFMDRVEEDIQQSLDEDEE

Staphylococcus aureus [5] = assay: Antibacterial activity against methicillin-sensitive Staphylococcus aureus; format: functional
Staphylococcus aureus [6] = assay: Antibacterial activity against fluoroquinolone-resistant Staphylococcus aureus 273/T/T/T; format: functional
[7] = Cytotoxicity against human HepG2 cells after 72 hrs; format: cell-based
Hepatocyte = assay: Cytotoxicity against rat hepatocytes after 48 hrs; format: functional
[8] = target: DNA topoisomerase 2-alpha (Homo sapiens) (UniProt P11388)
Sequence of DNA topoisomerase 2-alpha (Homo sapiens) (P11388 whole entry): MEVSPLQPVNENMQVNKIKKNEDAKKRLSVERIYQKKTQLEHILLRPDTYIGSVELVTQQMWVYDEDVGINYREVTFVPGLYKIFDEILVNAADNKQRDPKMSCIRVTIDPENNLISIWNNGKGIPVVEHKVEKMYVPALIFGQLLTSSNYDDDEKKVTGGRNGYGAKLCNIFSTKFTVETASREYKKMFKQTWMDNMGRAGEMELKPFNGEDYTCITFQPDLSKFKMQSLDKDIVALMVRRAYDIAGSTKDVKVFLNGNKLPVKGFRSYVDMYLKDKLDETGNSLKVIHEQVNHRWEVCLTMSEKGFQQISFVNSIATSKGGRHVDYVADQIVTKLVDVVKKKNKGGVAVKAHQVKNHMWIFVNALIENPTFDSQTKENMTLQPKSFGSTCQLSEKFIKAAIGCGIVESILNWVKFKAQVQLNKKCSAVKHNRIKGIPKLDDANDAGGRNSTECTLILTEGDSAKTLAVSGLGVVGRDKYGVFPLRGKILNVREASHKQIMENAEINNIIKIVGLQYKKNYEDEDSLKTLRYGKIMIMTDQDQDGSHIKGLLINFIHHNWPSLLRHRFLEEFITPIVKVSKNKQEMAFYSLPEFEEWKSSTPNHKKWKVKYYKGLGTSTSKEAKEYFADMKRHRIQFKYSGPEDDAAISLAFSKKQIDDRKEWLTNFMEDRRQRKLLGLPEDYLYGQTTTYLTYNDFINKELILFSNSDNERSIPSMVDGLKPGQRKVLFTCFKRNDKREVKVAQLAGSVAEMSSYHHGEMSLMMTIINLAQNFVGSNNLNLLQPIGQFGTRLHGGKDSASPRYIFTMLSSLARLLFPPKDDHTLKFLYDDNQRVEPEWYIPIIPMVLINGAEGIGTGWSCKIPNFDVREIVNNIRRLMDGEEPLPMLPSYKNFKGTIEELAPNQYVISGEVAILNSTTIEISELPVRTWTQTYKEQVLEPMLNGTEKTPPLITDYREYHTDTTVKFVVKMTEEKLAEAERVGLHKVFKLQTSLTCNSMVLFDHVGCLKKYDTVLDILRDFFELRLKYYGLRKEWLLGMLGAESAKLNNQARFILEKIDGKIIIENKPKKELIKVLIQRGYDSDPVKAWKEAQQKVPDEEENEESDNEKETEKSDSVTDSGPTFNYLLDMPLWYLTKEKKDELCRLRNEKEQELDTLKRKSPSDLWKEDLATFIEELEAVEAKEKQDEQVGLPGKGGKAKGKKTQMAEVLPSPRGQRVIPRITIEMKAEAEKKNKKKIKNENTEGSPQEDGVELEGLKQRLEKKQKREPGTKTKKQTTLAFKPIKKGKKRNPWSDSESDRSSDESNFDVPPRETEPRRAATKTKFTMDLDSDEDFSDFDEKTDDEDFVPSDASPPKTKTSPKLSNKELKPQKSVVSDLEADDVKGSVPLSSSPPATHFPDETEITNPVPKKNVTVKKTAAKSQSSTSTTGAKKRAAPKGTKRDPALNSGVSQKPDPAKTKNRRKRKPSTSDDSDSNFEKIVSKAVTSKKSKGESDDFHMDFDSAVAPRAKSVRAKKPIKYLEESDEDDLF

| Structure (SMILES) | MIC (Staphylococcus aureus [1]) [µg/mL] | CC50 at 72 h [2] [µM] | also measured |
| --- | --- | --- | --- |
| COc1c(-c2ccc3c(c2)CNC3)c(F)cc2c(=O)c3c(=O)[nH]sc3n(C3CC3)c12 | 0.5 (≈ 1.18 µM) | 19 | MIC50 (Staphylococcus aureus [1]): 0.5 µg/mL (≈ 1.18 µM); MIC90 (Staphylococcus aureus [1]): 2 µg/mL (≈ 4.72 µM); MIC50 (Staphylococcus aureus [3]): 0.5 µg/mL (≈ 1.18 µM); MIC90 (Staphylococcus aureus [3]): 1 µg/mL (≈ 2.36 µM); IC50 [4]: 0.1 µM; IC50 (DNA gyrase): 2 µM; MIC (Staphylococcus aureus [5]): 0.008 µg/mL (≈ 0.0189 µM); MIC (Staphylococcus aureus [6]): 0.5 µg/mL (≈ 1.18 µM); CC50 at 72 h [7]: 35 µM; CC50 (Hepatocyte): 75 µM; EC2 [8]: 75 µM |
| O=c1[nH]sc2c1c(=O)c1cc(F)c(-c3ccc4c(c3)CNC4)cc1n2C1CC1 | 2 (≈ 5.08 µM) | 8 | – |
| COc1c(-c2ccc3c(c2)CCNC3)ccc2c(=O)c3c(=O)[nH]sc3n(C3CC3)c12 | 4 (≈ 9.54 µM) | 89 | – |
| Cc1cc(-c2nc3c(cc2F)c(=O)c2c(=O)[nH]sc2n3C2CC2)cc(C)n1 | 64 (≈ 167 µM) | > 100 | – |
| CO/N=C1\CN(c2nc3c(cc2F)c(=O)c(C(=O)O)cn3C2CC2)CC1CN (stereo not given) [GEMIFLOXACIN] | 2 (≈ 5.14 µM) | 46 | IC50 [4]: 0.3 µM; IC50 (DNA gyrase): 5.6 µM; MIC (Staphylococcus aureus [5]): 0.03 µg/mL (≈ 0.077 µM); MIC (Staphylococcus aureus [6]): 4 µg/mL (≈ 10.3 µM); CC50 at 72 h [7]: 35 µM; CC50 (Hepatocyte): > 100 µM; EC2 [8]: > 150 µM |
| O=c1[nH]sc2c1c(=O)c1cc(F)c(-c3ccncc3)nc1n2C1CC1 | 2 (≈ 5.64 µM) | > 100 | – |
| O=C(O)c1cn(C2CC2)c2cc(N3CCNCC3)c(F)cc2c1=O [CIPROFLOXACIN] | 32 (≈ 96.6 µM) | > 100 | IC50 [4]: 1 µM; MIC (Staphylococcus aureus [5]): 0.25 µg/mL (≈ 0.754 µM); CC50 at 72 h [7]: > 100 µM; EC2 [8]: > 150 µM |
| C[C@H]1NCc2cc(-c3cc4c(cc3F)c(=O)c3c(=O)[nH]sc3n4C3CC3)ccc21 | 1 (≈ 2.45 µM) | 2 | – |
| COc1c(-c2cc(C)nc(C)c2)ccc2c(=O)c3c(=O)[nH]sc3n(C3CC3)c12 | 1 (≈ 2.54 µM) | > 100 | – |
| COc1c(-c2ccc3c(c2)CCN(C)C3)c(F)cc2c(=O)c3c(=O)[nH]sc3n(C3CC3)c12 | 4 (≈ 8.86 µM) | 61 | – |
| COc1c(-c2ccc3cnccc3c2)c(F)cc2c(=O)c3c(=O)[nH]sc3n(C3CC3)c12 | 0.12 (≈ 0.277 µM) | 39 | – |
| COc1c(-c2ccc3cnccc3c2)ccc2c(=O)c3c(=O)[nH]sc3n(C3CC3)c12 | 0.12 (≈ 0.289 µM) | 45 | – |
| COc1c(-c2ccc3c(c2)CNC3)ccc2c(=O)c3c(=O)[nH]sc3n(C3CC3)c12 | 2 (≈ 4.93 µM) | 97 | – |
| COc1c(-c2ccnc(C)c2)ccc2c(=O)c3c(=O)[nH]sc3n(C3CC3)c12 | 1 (≈ 2.64 µM) | > 100 | – |
